Patent US4399125A, “Novel antagonists of the antidiuretic action of arginine vasopressin” (priority 1981, dated 1983)
*1 amine or outer side, *2 acyl side, *3 side chain or, on linkers, in order; H or OH if unused. Where a SMILES comes first, the peptide text is derived from it. Bridges are numbered along the chain shown (N, C = ends). [ ]: non-standard residue; d: D form. X1 = O=C(CC1(S[*:2])CCCCC1)[*:1]

Columns and labels:
[1] = tested on: vasopressor response to AVP; assay: Antagonism to the vasopressor response (Dyckes et al.); conditions: estimated in vivo pA2 (Schild); effective dose / 67 mL/kg; (n) in parentheses
Method: Antagonism to the vasopressor response was estimated in accordance with Dyckes et al., J. Med. Chem., vol. 17 (1974) at 969. The values are expressed as pA2 values, defined by Schild et al., Br. J. Pharmacol., vol. 2 (1947) at 189.
(§1) Antagonistic potencies were determined and expressed as "effective doses" and as pA2 values. The "effective dose" is defined as the dose (in nanomoles per kilogram) that reduces the response seen from 2x units of agonist injected 20 min after the dose of antagonist to the response with 1x units of agonist.

[2] = tested on: antidiuretic response to ADH (arginine vasopressin); assay: Antagonism of the antidiuretic response to ADH (anti-antidiuretic potency) in ethanol-anesthetized water-loaded rats; conditions: estimated in vivo pA2 = negative logarithm of effective dose divided by estimated volume of distribution (67 mL/kg); (n) in parentheses
Method: Activity as antidiuretic agonists was determined by intravenous injection of compounds being evaluated into ethanol-anesthesized water-loaded rats in accordance with Sawyer et al., Endocrinology, vol. 63 (1958) at 694.
as §1

`CCOc1ccc(C[C@H]2NC(=O)CC3(CCCCC3)SSC[C@@H](C(=O)N3CCC[C@H]3C(=O)N[C@@H](CCCNC(=N)N)C(=O)NCC(N)=O)NC(=O)[C@H](CC(N)=O)NC(=O)[C@H](C(C)C)NC(=O)[C@H](Cc3ccccc3)NC2=O)cc1` [d(CH2)5 --D-Tyr(Et) VAVP] ([dY](Et)FVNCPRG-NH2; linker N-5 via X1) was tested, and the “Antivasopressor pA2” value [1] was 8.22 ± 0.12 and the “Anti-Antidiuretic pA2” value [2] was 7.81 ± 0.07.
`COc1ccc(C[C@H]2NC(=O)CC3(CCCCC3)SSC[C@@H](C(=O)N3CCC[C@H]3C(=O)N[C@@H](CCCNC(=N)N)C(=O)NCC(N)=O)NC(=O)[C@H](CC(N)=O)NC(=O)[C@H](C(C)C)NC(=O)[C@H](Cc3ccccc3)NC2=O)cc1` [d(CH2)5 --D-Tyr(Me) VAVP] ([dY](Me)FVNCPRG-NH2; linker N-5 via X1) was tested, and the “Antivasopressor pA2” value [1] was 8.48 ± 0.08 and the “Anti-Antidiuretic pA2” value [2] was 7.77 ± 0.07.
For `CC(C)[C@@H]1NC(=O)[C@H](Cc2ccccc2)NC(=O)[C@@H](Cc2ccccc2)NC(=O)CC2(CCCCC2)SSC[C@@H](C(=O)N2CCC[C@H]2C(=O)N[C@@H](CCCNC(=N)N)C(=O)NCC(N)=O)NC(=O)[C@H](CC(N)=O)NC1=O` [d(CH2)5 D-Phe VAVP, [1-(β-mercapto-β,β-cyclopentamethylenepropionicacid), 2-D-phenylalanine, 4-valine]-arginine vasopressin] ([dF]FVNCPRG-NH2; linker N-5 via X1), the “Antivasopressor pA2” value [1] was 8.06 ± 0.03 and the “Anti-Antidiuretic pA2” value [2] was 8.07 ± 0.09.
In the case of `CC(C)[C@@H]1NC(=O)[C@H](Cc2ccccc2)NC(=O)[C@@H](Cc2ccccc2)NC(=O)CC2(CCCCC2)SSC[C@@H](C(=O)N2CCC[C@H]2C(=O)N[C@H](CCCNC(=N)N)C(=O)NCC(N)=O)NC(=O)[C@H](CC(N)=O)NC1=O` [d(CH2)5 D-Phe VDAVP, [1-(β-mercapto-β,β-cyclopentamethylenepropionic acid), 2-D-phenylalanine, 4-valine, 8-D-arginine] vasopressin] ([dF]FVNCP[dR]G-NH2; linker N-5 via X1), the “Antivasopressor pA2” value [1] is reported as 7.98 ± 0.07 and the “Anti-Antidiuretic pA2” value [2] is reported as 7.07 ± 0.10.
`CC(C)[C@@H]1NC(=O)[C@H](Cc2ccccc2)NC(=O)[C@@H](Cc2ccc(O)cc2)NC(=O)CC2(CCCCC2)SSC[C@@H](C(=O)N2CCC[C@H]2C(=O)N[C@@H](CCCNC(=N)N)C(=O)NCC(N)=O)NC(=O)[C@H](CC(N)=O)NC1=O` [d(CH2)5 D-Tyr VAVP, [1-(β-mercapto-β,β-cyclopentamethylenepropionic acid), 2-D-tyrosine, 4-valine]-arginine vasopressin] ([dY]FVNCPRG-NH2; linker N-5 via X1) was tested, and the “Antivasopressor pA2” value [1] was 8.41 ± 0.11 and the “Anti-Antidiuretic pA2” value [2] was 7.51 ± 0.08.
With `CCOc1ccc(C[C@@H]2NC(=O)CC3(CCCCC3)SSC[C@@H](C(=O)N3CCC[C@H]3C(=O)N[C@@H](CCCNC(=N)N)C(=O)NCC(N)=O)NC(=O)[C@H](CC(N)=O)NC(=O)[C@H](C(C)C)NC(=O)[C@H](Cc3ccccc3)NC2=O)cc1` [d(CH2)5 Tyr(Et) VAVP] (Y(Et)FVNCPRG-NH2; linker N-5 via X1) the “Antivasopressor pA2” value [1] was 8.16 ± 0.09 and the “Anti-Antidiuretic pA2” value [2] was 7.57 ± 0.06.
In the case of `CCOc1ccc(C[C@@H]2NC(=O)CC3(CCCCC3)SSC[C@@H](C(=O)N3CCC[C@H]3C(=O)N[C@H](CCCNC(=N)N)C(=O)NCC(N)=O)NC(=O)[C@H](CC(N)=O)NC(=O)[C@H](C(C)C)NC(=O)[C@H](Cc3ccccc3)NC2=O)cc1` [d(CH2)5 Tyr(Et) VDAVP] (Y(Et)FVNCP[dR]G-NH2; linker N-5 via X1), the “Antivasopressor pA2” value [1] is reported as 8.31 ± 0.05 and the “Anti-Antidiuretic pA2” value [2] is reported as 7.10 ± 0.08.
In the case of `CC(C)[C@@H]1NC(=O)[C@H](Cc2ccccc2)NC(=O)[C@@H](C)NC(=O)CC2(CCCCC2)SSC[C@@H](C(=O)N2CCC[C@H]2C(=O)N[C@@H](CCCNC(=N)N)C(=O)NCC(N)=O)NC(=O)[C@H](CC(N)=O)NC1=O` [d(CH2)5 [D-Ala^2] VAVP, [1-(β-mercapto-β,β-cyclopentamethylenepropionic acid), 2-D-alanine, 4-valine]-arginine vasopressin] ([dA]FVNCPRG-NH2; linker N-5 via X1), the “Antivasopressor pA2” value [1] is reported as 5.79 ± 0.08.
